Test [1] concerns A. fumigatus Tsukuba strain. Put plainly: Anti-Aspergillus activity, MIC measurement. In kind it is cell-based. The settings on record: RPMI1640, 42-48 hours at 35° C., visual inspection, read-out: Anti-Aspergillus Activity (minimum inhibitory concentration, MIC). A digest of the protocol:
(§1)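 C. albicans CAF2-1 was grown 48 h at 30° C. in SDB and diluted in RPMI1640 to 1.2×10^3 cells/mL. Frozen A. fumigatus Tsukuba was diluted to 4.5×10^3 cells/mL. Compounds, two-fold serially diluted in DMSO from 2.5 mg/mL, were cultured aerobically with fungi for 42-48 h at 35° C.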

The test system of test [2] is C. albicans E81022 strain. Briefly: Experimental systemic candidal infection model in mice. In kind it is in vivo. The following applies: peroral, 3 times every 4 hours, female ICR mice, observed until 14 days after infection. The method, then: A standing culture of C. albicans E81022 strain was carried out for 48 hours at 30° C. in sabouraud dextrose agar medium (SDA), the recovered fungal cells were suspended in sterilized physiological saline. By counting the fungal number on cytometry plate, the suspension was diluted to 2×10^7 cells/mL with sterilized physiological saline to serve fungal inoculum.
The fungal inoculum was used in the amounts of 0.2 mL to inoculate 4.5 to 5.5 week-old female ICR mice in the tail vein (4×10^6 cells/mouse).
From 0.5 to 1 hour after fungal inoculation, 0.2 mL of agent solution (dissolved or suspended in sterilized physiological saline containing 6.5% dimethyl sulfoxide and 3.5% Tween 80) was administered into the stomach using a peroral probe, 3 times every 4 hours. The agent concentration was 2.5 mg/kg or 10 mg/kg, and the number of animals in one group was 5 animals.
The protective effect was determined by observing life/death until 14 days after infection and calculating the mean survival days.

Test [3] relates to C. albicans CAF2-1 strain. Put plainly: Anti-Candida activity, MIC measurement. It counts as cell-based. The settings on record: CAF21STRAIN, C. albicans CAF2-1, RPMI1640, 42-48 hours at 35° C., visual inspection, read-out: Anti-Candida Activity (minimum inhibitory concentration, MIC). The procedure, abridged: as §1

Results on three molecules are retold here after patent publication US8158657B2, “Heterocycles substituted pyridine derivatives and antifungal agent containing thereof” (Eisai R&D Management Co., Ltd., priority 2005, dated 2012).

Structures are written as SMILES. In brackets after ≈: the same amount, converted by molar mass.

As to `Nc1ccc(-c2cc(Cc3ccc(OCc4ccc(F)cc4)nc3)no2)c(N)n1` [Example 116, 3-(3-(6-(4-Fluoro-benzyloxy)-pyridin-3-ylmethyl)-isoxazol-5-yl)-pyridin-2,6-diamine], the MIC in test [1] is 0.2 µg/mL (≈ 0.511 µM); in test [3] it was 0.78 µg/mL (≈ 1.99 µM). Further, the “Mean Survival Days” value in test [2] (2.5 mg/kg) worked out at 4.6 days; in test [2] (10 mg/kg) it was 12.6 days.

`Cc1cccc(OCc2ccc(Cc3cc(-c4ccc(N)nc4N)on3)cc2)n1` [Example 15, 3-(3-(4-(6-Methyl-pyridin-2-yloxymethyl)-benzyl)-isoxazol-5-yl)-pyridin-2,6-diamine]: the MIC in test [1] is 0.39 µg/mL (≈ 1.01 µM); in test [3], 0.2 µg/mL (≈ 0.516 µM). Besides, the entries for the “Mean Survival Days” value in test [2] (2.5 mg/kg) and in test [2] (10 mg/kg) were 10.8 days and 12.6 days, respectively.

For `Nc1ccc(-c2cc(Cc3ccc(OCc4ccc(F)cn4)cc3)no2)c(N)n1` [Example 112, 3-(3-(4-(5-Fluoro-pyridin-2-ylmethoxy)-benzyl)-isoxazol-5-yl)-pyridin-2,6-diamine], the values for the MIC in test [1] and in test [3] were 0.39 µg/mL (≈ 0.996 µM) and 0.78 µg/mL (≈ 1.99 µM), respectively. In test [2] (10 mg/kg), the “Mean Survival Days” value worked out at 12.2 days.
